Test results from patent US7598258B2, “Quinoline derivatives and quinazoline derivatives inhibiting autophosphorylation of macrophage colony stimulating factor receptor” (Kirin Beer Kabushiki Kaisha, priority 2002, dated 2009).

Biological target: T1, Human KDR (Homo sapiens, UniProt P35968)
T1 construct: expressed in transfected cells; host or cells: NIH3T3 cells (mouse fibroblasts)
Test: Inhibition of KDR phosphorylation in human KDR-transfected NIH3T3 cells (ELISA);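 as to Selection ratio (KDR phosphorylation IC50 / c-fms phosphorylation IC50): class 2 means ratio of 10 or more and class 3 means 50 or more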
Type: cell-based
Settings: for Selection ratio (KDR phosphorylation IC50 / c-fms phosphorylation IC50): class 0-3; for IC50: human KDR-transfected NIH3T3 cells, VEGF 100 ng/ml, ELISA, read-out: KDR phosphorylation 50% inhibitory concentration (IC50)
Outline: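 NIH3T3 cells transfected with human KDR, in 0.1% FCS medium, treated with compound 1 hr at 37° C, then stimulated with VEGF 100 ng/ml for 2 min. Lysate KDR phosphorylation measured by anti-phosphotyrosine capture/anti-KDR ELISA (A450); IC50 from inhibition normalized between VEGF-stimulated and unstimulated wells.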

T1 sequence (P35968 20-1356): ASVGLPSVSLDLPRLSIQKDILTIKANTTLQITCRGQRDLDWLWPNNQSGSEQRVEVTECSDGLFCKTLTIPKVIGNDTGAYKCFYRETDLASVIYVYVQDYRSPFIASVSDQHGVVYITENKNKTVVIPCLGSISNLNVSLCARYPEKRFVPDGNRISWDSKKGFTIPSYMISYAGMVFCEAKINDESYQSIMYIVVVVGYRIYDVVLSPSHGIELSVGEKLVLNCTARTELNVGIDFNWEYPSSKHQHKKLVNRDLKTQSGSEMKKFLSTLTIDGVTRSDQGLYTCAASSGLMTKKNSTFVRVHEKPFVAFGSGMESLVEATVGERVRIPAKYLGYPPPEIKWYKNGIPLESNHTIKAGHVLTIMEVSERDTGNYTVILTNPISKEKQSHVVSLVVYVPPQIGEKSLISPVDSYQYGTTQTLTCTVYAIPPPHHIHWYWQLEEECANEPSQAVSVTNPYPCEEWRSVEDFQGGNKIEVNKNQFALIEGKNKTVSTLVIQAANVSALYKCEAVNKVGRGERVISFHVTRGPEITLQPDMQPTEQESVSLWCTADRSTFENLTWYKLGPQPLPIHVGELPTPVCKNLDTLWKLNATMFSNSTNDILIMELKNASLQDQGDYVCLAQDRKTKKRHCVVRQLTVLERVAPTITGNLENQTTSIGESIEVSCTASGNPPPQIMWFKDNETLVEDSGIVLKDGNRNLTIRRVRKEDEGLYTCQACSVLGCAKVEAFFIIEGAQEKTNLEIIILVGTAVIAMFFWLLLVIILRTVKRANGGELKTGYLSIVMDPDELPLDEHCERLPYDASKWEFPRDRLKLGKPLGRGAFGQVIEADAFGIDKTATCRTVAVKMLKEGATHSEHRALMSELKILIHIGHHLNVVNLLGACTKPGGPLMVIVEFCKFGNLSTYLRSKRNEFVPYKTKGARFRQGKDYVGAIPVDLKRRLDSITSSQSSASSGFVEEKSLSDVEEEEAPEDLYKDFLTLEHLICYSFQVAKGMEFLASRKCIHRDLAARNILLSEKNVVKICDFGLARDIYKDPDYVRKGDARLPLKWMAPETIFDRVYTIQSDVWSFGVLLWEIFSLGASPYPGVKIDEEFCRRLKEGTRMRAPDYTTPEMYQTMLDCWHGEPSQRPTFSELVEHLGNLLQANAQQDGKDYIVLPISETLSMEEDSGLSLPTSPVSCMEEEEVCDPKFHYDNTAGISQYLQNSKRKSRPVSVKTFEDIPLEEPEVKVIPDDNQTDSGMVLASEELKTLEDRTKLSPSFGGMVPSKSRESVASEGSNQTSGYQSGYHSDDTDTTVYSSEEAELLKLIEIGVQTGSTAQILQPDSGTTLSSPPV

In the case of `COc1cc2nccc(Oc3ccc(NC(=O)NC(C)c4nccs4)cc3OC)c2cc1OC` (stereo not drawn) [Example 80, N-{4-[(6,7-Dimethoxy-4-quinolyl)oxy]-3-methoxyphenyl}-N′-[1-(1,3-thiazol-2-yl)ethyl]urea], the “Selection ratio (KDR phosphorylation IC50 / c-fms phosphorylation IC50)” value is reported as 3 (when the value was 50 or more) and the IC50 is reported as 526 nM.

In the case of `COc1cc2nccc(Oc3ccc(NC(=O)N[C@@H](C)c4nccs4)cc3OC)c2cc1OC` [Example 81, N-{4-[(6,7-Dimethoxy-4-quinolyl)oxy]-3-methoxyphenyl}-N′-[(1S)-1-(1,3-thiazol-2-yl)ethyl]urea], the “Selection ratio (KDR phosphorylation IC50 / c-fms phosphorylation IC50)” value is reported as 3 (when the value was 50 or more) and the IC50 is reported as 1050 nM.

With `COc1cc2nccc(Oc3ccc(NC(=O)N[C@H](C)c4nccs4)cc3OC)c2cc1OC` [Example 82, N-{4-[(6,7-Dimethoxy-4-quinolyl)oxy]-3-methoxyphenyl}-N′-[(1R)-1-(1,3-thiazol-2-yl)ethyl]urea] the “Selection ratio (KDR phosphorylation IC50 / c-fms phosphorylation IC50)” value was 3 (when the value was 50 or more) and the IC50 was 650 nM.

With `COc1cc2nccc(Oc3ccc(NC(=O)NC(C)c4nccs4)c(C(F)(F)F)c3)c2cc1OC` (stereo not drawn) [Example 83, N-[4-[(6,7-Dimethoxy-4-quinolyl)oxy]-2-(trifluoromethyl)phenyl]-N′-[1-(1,3-thiazol-2-yl)ethyl]urea] the “Selection ratio (KDR phosphorylation IC50 / c-fms phosphorylation IC50)” value was 0 (KDR phosphorylation 50% inhibitory concentration [μM]/c-fms phosphorylation 50% inhibitory concentration [μM] was less than 5) and the IC50 was 7.9 nM.

With `COc1cc2nccc(Oc3ccc(NC(=O)N[C@@H](C)c4nccs4)c(C(F)(F)F)c3)c2cc1OC` [Example 84, N-[4-[(6,7-Dimethoxy-4-quinolyl)oxy]-2-(trifluoromethyl)phenyl]-N′-[(1S)-1-(1,3-thiazol-2-yl)ethyl]urea] the “Selection ratio (KDR phosphorylation IC50 / c-fms phosphorylation IC50)” value was 3 (when the value was 50 or more) and the IC50 was 661 nM.

For `COc1cc2nccc(Oc3ccc(NC(=O)N[C@H](C)c4nccs4)c(C(F)(F)F)c3)c2cc1OC` [Example 85, N-[4-[(6,7-Dimethoxy-4-quinolyl)oxy]-2-(trifluoromethyl)phenyl]-N′-[(1R)-1-(1,3-thiazol-2-yl)ethyl]urea], the “Selection ratio (KDR phosphorylation IC50 / c-fms phosphorylation IC50)” value was 0 (KDR phosphorylation 50% inhibitory concentration [μM]/c-fms phosphorylation 50% inhibitory concentration [μM] was less than 5) and the IC50 was 21.6 nM.

`COc1cc2nccc(Oc3cc(C)c(NC(=O)N[C@@H](C)c4nccs4)cc3C)c2cc1OC` [Example 86, N-{4-[(6,7-Dimethoxy-4-quinolyl)oxy]-2,5-dimethylphenyl}-N′-[(1S)-1-(1,3-thiazol-2-yl)ethyl]urea] was tested, and the “Selection ratio (KDR phosphorylation IC50 / c-fms phosphorylation IC50)” value was 2 (when the value was 10 or more) and the IC50 was 208 nM.

In the case of `COc1cc2nccc(Oc3cc(C)c(NC(=O)N[C@H](C)c4nccs4)cc3C)c2cc1OC` [Example 87, N-{4-[(6,7-Dimethoxy-4-quinolyl)oxy]-2,5-dimethylphenyl}-N′-[(1R)-1-(1,3-thiazol-2-yl)ethyl]urea], the “Selection ratio (KDR phosphorylation IC50 / c-fms phosphorylation IC50)” value is reported as 2 (when the value was 10 or more) and the IC50 is reported as 273 nM.

For `COc1cc2nccc(Oc3ccc(NC(=O)NC(C)c4nc(C)cs4)c(F)c3)c2cc1OC` (stereo not drawn) [Example 88, N-{4-[(6,7-Dimethoxy-4-quinolyl)oxy]-2-fluorophenyl}-N′-[1-(4-methyl-1,3-thiazol-2-yl)ethyl]urea], the “Selection ratio (KDR phosphorylation IC50 / c-fms phosphorylation IC50)” value was 0 (KDR phosphorylation 50% inhibitory concentration [μM]/c-fms phosphorylation 50% inhibitory concentration [μM] was less than 5) and the IC50 was 8.7 nM.

In the case of `COc1cc2nccc(Oc3ccc(NC(=O)NC(C)c4nc(C)cs4)cc3F)c2cc1OC` (stereo not drawn) [Example 89, N-{4-[(6,7-Dimethoxy-4-quinolyl)oxy]-3-fluorophenyl}-N′-[1-(4-methyl-1,3-thiazol-2-yl)ethyl]urea], the “Selection ratio (KDR phosphorylation IC50 / c-fms phosphorylation IC50)” value is reported as 1 (when the value was 5 or more) and the IC50 is reported as 17.4 nM.

`COc1cc(Oc2ccnc3cc(OC)c(OC)cc23)ccc1NC(=O)NC(C)c1nc(C)cs1` (stereo not drawn) [Example 90, N-{4-[(6,7-Dimethoxy-4-quinolyl)oxy]-2-methoxyphenyl}-N′-[1-(4-methyl-1,3-thiazol-2-yl)ethyl]urea] was tested, and the “Selection ratio (KDR phosphorylation IC50 / c-fms phosphorylation IC50)” value was 2 (when the value was 10 or more) and the IC50 was 111 nM.

`COc1cc2nccc(Oc3ccc(NC(=O)NC(C)c4nc(C)cs4)cc3)c2cc1OC` (stereo not drawn) [Example 91, N-{4-[(6,7-Dimethoxy-4-quinolyl)oxy]phenyl}-N′-[1-(4-methyl-1,3-thiazol-2-yl)ethyl]urea] was tested, and the “Selection ratio (KDR phosphorylation IC50 / c-fms phosphorylation IC50)” value was 1 (when the value was 5 or more) and the IC50 was 28.8 nM.

In the case of `COc1cc2nccc(Oc3ccc(NC(=O)NC(C)c4nc(C)cs4)c(C(F)(F)F)c3)c2cc1OC` (stereo not drawn) [Example 92, N-[4-[(6,7-Dimethoxy-4-quinolyl)oxy]-2-(trifluoromethyl)phenyl]-N′-[1-(4-methyl-1,3-thiazol-2-yl)ethyl]urea], the “Selection ratio (KDR phosphorylation IC50 / c-fms phosphorylation IC50)” value is reported as 0 (KDR phosphorylation 50% inhibitory concentration [μM]/c-fms phosphorylation 50% inhibitory concentration [μM] was less than 5) and the IC50 is reported as 4.3 nM.

With `COc1cc2nccc(Oc3cc(C)c(NC(=O)NC(C)c4nc(C)cs4)cc3C)c2cc1OC` (stereo not drawn) [Example 93, N-{4-[(6,7-Dimethoxy-4-quinolyl)oxy]-2,5-dimethylphenyl}-N′-[1-(4-methyl-1,3-thiazol-2-yl)ethyl]urea] the “Selection ratio (KDR phosphorylation IC50 / c-fms phosphorylation IC50)” value was 1 (when the value was 5 or more) and the IC50 was 268 nM.

For `COc1cc(Oc2ccnc3cc(OC)c(OC)cc23)ccc1NC(=O)NC(C)c1nc(C)c(C)s1` (stereo not drawn) [Example 99, N-{4-[(6,7-Dimethoxy-4-quinolyl)oxy]-2-methoxyphenyl}-N′-[1-(4,5-dimethyl-1,3-thiazol-2-yl)ethyl]urea], the “Selection ratio (KDR phosphorylation IC50 / c-fms phosphorylation IC50)” value was 2 (when the value was 10 or more) and the IC50 was 292 nM.

`COc1cc2nccc(Oc3ccc(NC(=O)NC(C)c4ncc(C)s4)cc3)c2cc1OC` (stereo not drawn) [Example 100, N-{4-[(6,7-Dimethoxy-4-quinolyl)oxy]phenyl}-N′-[1-(5-methyl-1,3-thiazol-2-yl)ethyl]urea] was tested, and the “Selection ratio (KDR phosphorylation IC50 / c-fms phosphorylation IC50)” value was 2 (when the value was 10 or more) and the IC50 was 311 nM.

`COc1cc2nccc(Oc3ccc(NC(=O)NC(C)c4ncc(C)s4)c(F)c3)c2cc1OC` (stereo not drawn) [Example 101, N-{4-[(6,7-Dimethoxy-4-quinolyl)oxy]-2-fluorophenyl}-N′-[1-(5-methyl-1,3-thiazol-2-yl)ethyl]urea] was tested, and the “Selection ratio (KDR phosphorylation IC50 / c-fms phosphorylation IC50)” value was 2 (when the value was 10 or more) and the IC50 was 239 nM.

With `COc1cc2nccc(Oc3ccc(NC(=O)NC(C)c4ncc(C)s4)cc3F)c2cc1OC` (stereo not drawn) [Example 102, N-{4-[(6,7-Dimethoxy-4-quinolyl)oxy]-3-fluorophenyl}-N′-[1-(5-methyl-1,3-thiazol-2-yl)ethyl]urea] the “Selection ratio (KDR phosphorylation IC50 / c-fms phosphorylation IC50)” value was 2 (when the value was 10 or more) and the IC50 was 219 nM.

With `COc1cc2nccc(Oc3ccc(NC(=O)NC(C)c4ncc(C)s4)c(C)c3)c2cc1OC` (stereo not drawn) [Example 103, N-{4-[(6,7-Dimethoxy-4-quinolyl)oxy]-2-methylphenyl}-N′-[1-(5-methyl-1,3-thiazol-2-yl)ethyl]urea] the “Selection ratio (KDR phosphorylation IC50 / c-fms phosphorylation IC50)” value was 0 (KDR phosphorylation 50% inhibitory concentration [μM]/c-fms phosphorylation 50% inhibitory concentration [μM] was less than 5) and the IC50 was 90.9 nM.

For `COc1cc2nccc(Oc3ccc(NC(=O)NC(C)c4ncc(C)s4)c(C(F)(F)F)c3)c2cc1OC` (stereo not drawn) [Example 104, N-[4-[(6,7-Dimethoxy-4-quinolyl)oxy]-2-(trifluoromethyl)phenyl]-N′-[1-(5-methyl-1,3-thiazol-2-yl)ethyl]urea], the “Selection ratio (KDR phosphorylation IC50 / c-fms phosphorylation IC50)” value was 0 (KDR phosphorylation 50% inhibitory concentration [μM]/c-fms phosphorylation 50% inhibitory concentration [μM] was less than 5) and the IC50 was 36.1 nM.

With `COc1cc(Oc2ccnc3cc(OC)c(OC)cc23)ccc1NC(=O)NC(C)c1ncc(C)s1` (stereo not drawn) [Example 105, N-{4-[(6,7-Dimethoxy-4-quinolyl)oxy]-2-methoxyphenyl}-N′-[1-(5-methyl-1,3-thiazol-2-yl)ethyl]urea] the “Selection ratio (KDR phosphorylation IC50 / c-fms phosphorylation IC50)” value was 2 (when the value was 10 or more) and the IC50 was 310 nM.
